Laboratory results as given in US20040141914A1, “Cancerous disease modifying antibodies” (priority 2003, published 2004).

Columns and labels:
MB-468 = tested on: MB-468; design: key to the marks not given beside the values
HT-29 = tested on: HT-29; design: key to the marks not given beside the values
PC-3 = tested on: PC-3; design: key to the marks not given beside the values
MB-231 = tested on: MB-231; design: key to the marks not given beside the values
[1] = Live/Dead cytotoxicity assay, hybridoma supernatant; settings: human
MCF-7 = tested on: MCF-7; design: key to the marks not given beside the values
OVCAR = tested on: OVCAR; design: key to the marks not given beside the values
NCI H460 = tested on: NCI H460; design: key to the marks not given beside the values

C[C@@H]1C[C@@H]([C@H](O)CC2CC(=O)NC(=O)C2)C(=O)[C@@H](C)C1 [Cycloheximide]
17%: cytotoxicity at 5 days [1]
+++: cytotoxicity, experiments greater than threshold, MB-468 (MB-468) | cytotoxicity, experiments greater than threshold, HT-29 (HT-29) | cytotoxicity, experiments greater than threshold, PC-3 (PC-3) | cytotoxicity, experiments greater than threshold, MB-231 (MB-231) | cytotoxicity, experiments greater than threshold, MCF-7 (MCF-7) | cytotoxicity, experiments greater than threshold, OVCAR (OVCAR) | cytotoxicity, experiments greater than threshold, NCI H460 (NCI H460)
